Laboratory results taken from ChEMBL document CHEMBL1201862, “PubChem BioAssay data set” (2004).
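How tested: cells in 96-well plates exposed to compound for 48 hours at five concentrations. The concentration for 50% growth inhibition is given as GI50.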 Active and inactive are the calls of the source. Cut-off read from the data, not from the text of the source: active = GI50 up to about 1.1 µM and inactive = higher.

Key:
Experiment in all cases: DTP human tumour cell line panel, 48 h
CCRF-CEM = tested on: CCRF-CEM
DU-145 = tested on: DU-145
HCT-116 = tested on: HCT-116
HCT-15 = tested on: HCT-15
HOP-62 = tested on: HOP-62
LOX IMVI = tested on: LOX IMVI
M14 = tested on: M14
MDA-MB-231 = tested on: MDA-MB-231
MDA-MB-435 = tested on: MDA-MB-435
NCI-H226 = tested on: NCI-H226
PC-3 = tested on: PC-3
SK-MEL-5 = tested on: SK-MEL-5
U-251 = tested on: U-251
UACC-257 = tested on: UACC-257
CAKI-1 = tested on: CAKI-1
OVCAR-4 = tested on: OVCAR-4
UACC-62 = tested on: UACC-62
OVCAR-3 = tested on: OVCAR-3
UO-31 = tested on: UO-31

SMILES | GI50 (CCRF-CEM) | GI50 (DU-145) | GI50 (HCT-116) | GI50 (HCT-15) | GI50 (HOP-62) | GI50 (LOX IMVI) | GI50 (M14) | GI50 (MDA-MB-231) | GI50 (MDA-MB-435) | GI50 (NCI-H226) | GI50 (PC-3) | GI50 (SK-MEL-5) | GI50 (U-251) | GI50 (UACC-257) | GI50 (CAKI-1) | GI50 (OVCAR-4) | GI50 (UACC-62) | GI50 (OVCAR-3) | GI50 (UO-31)
COC(=O)[C@H]1C[C@H]1NC(=O)C(CC(=O)OCc1ccccc1)NC(=O)OCc1ccccc1 (some centres not stated) | 31.6 µM (inactive) | 73.5 µM (inactive) | 47.6 µM (inactive) | 73.1 µM | > 10 µM (inactive) | 83 µM (inactive) | 25.7 µM (inactive) | > 100 µM (inactive) | 35 µM (inactive) | 89.5 µM (inactive) | 35.3 µM (inactive) | 25.4 µM (inactive) | 81.5 µM (inactive) | 86.7 µM (inactive) | – | – | – | – | –
CN1COCc2cc3cc4c(cc3nc21)OCCO4 | 81.7 µM (inactive) | – | 93.3 µM (inactive) | > 100 µM | > 100 µM (inactive) | > 100 µM (inactive) | > 100 µM (inactive) | > 100 µM (inactive) | > 100 µM (inactive) | > 100 µM (inactive) | 91.8 µM (inactive) | 39.5 µM (inactive) | > 100 µM (inactive) | > 100 µM (inactive) | 94.6 µM (inactive) | > 100 µM (inactive) | > 100 µM (inactive) | – | –
CCn1c(CCl)nc2c1C(=O)c1ccccc1C2=O | 0.171 µM (active) | 2.67 µM (inactive) | 2.13 µM (inactive) | 1.66 µM | 2.42 µM (inactive) | – | 1.63 µM (inactive) | – | 1.69 µM (inactive) | 0.225 µM (active) | 1.91 µM (inactive) | 0.42 µM (active) | 1.71 µM (inactive) | 1.67 µM (inactive) | – | 1.66 µM (inactive) | 1.28 µM (inactive) | 1.69 µM (inactive) | –
COCC(C)(C)/N=C/N1Cc2cc3ccccc3nc2C1 | > 100 µM (inactive) | – | > 100 µM (inactive) | > 100 µM | 93.8 µM (inactive) | – | > 100 µM (inactive) | – | – | > 100 µM (inactive) | – | > 100 µM (inactive) | > 100 µM (inactive) | > 100 µM (inactive) | > 100 µM (inactive) | > 100 µM (inactive) | > 100 µM (inactive) | 75.5 µM (inactive) | > 100 µM (inactive)
CC(C)c1ccc2nc3ccc(C(=O)NCCN4CCN(c5ccccc5)CC4)cn3c(=O)c2c1 | 2.24 µM (inactive) | > 100 µM (inactive) | 5.66 µM (inactive) | 6.38 µM | 6.31 µM (inactive) | – | 2.87 µM (inactive) | > 100 µM (inactive) | – | > 100 µM (inactive) | 2.37 µM (inactive) | 2.58 µM (inactive) | > 100 µM (inactive) | 4.67 µM (inactive) | 5.06 µM (inactive) | > 100 µM (inactive) | 3.87 µM (inactive) | > 100 µM (inactive) | 4.9 µM (inactive)
COc1cc2c(cc1OC)C1C(O)C(OC)C(Br)C3(Br)CCN(C2)C13 (configuration not stated) | > 100 µM (inactive) | > 100 µM (inactive) | > 100 µM (inactive) | > 100 µM | > 100 µM (inactive) | – | > 100 µM (inactive) | > 100 µM (inactive) | > 100 µM (inactive) | > 100 µM (inactive) | > 100 µM (inactive) | > 100 µM (inactive) | 47.1 µM (inactive) | > 100 µM (inactive) | > 100 µM (inactive) | > 100 µM (inactive) | > 100 µM (inactive) | > 100 µM (inactive) | > 100 µM (inactive)
C/C(=N/NC(=S)N1CCCC1)c1cccc(/C(C)=N\NC(=S)N2CCCC2)n1 | 0.0667 µM (active) | 2.61 µM (inactive) | 1.14 µM (inactive) | 0.492 µM | 0.378 µM (active) | 0.0847 µM (active) | 1.25 µM (inactive) | 0.046 µM (active) | 1.43 µM (inactive) | 1.62 µM (inactive) | 0.076 µM (active) | 1.36 µM (inactive) | 1.5 µM (inactive) | – | 1.28 µM (inactive) | – | 2.25 µM (inactive) | 0.0973 µM (active) | 0.766 µM (active)
COC(=O)C(Cc1c[nH]c2ccccc12)NP(=O)(O)OCC1OC(n2cc(F)c(=O)[nH]c2=O)CC1O (configuration not stated) | 3.59 µM (inactive) | 43.9 µM (inactive) | 14.5 µM (inactive) | > 100 µM | 25.9 µM (inactive) | 18.2 µM (inactive) | 30.8 µM (inactive) | > 100 µM (inactive) | > 100 µM (inactive) | > 100 µM (inactive) | > 51.1 µM (inactive) | 77.3 µM (inactive) | > 100 µM (inactive) | > 100 µM (inactive) | – | > 100 µM (inactive) | > 26.5 µM (inactive) | > 100 µM (inactive) | 23.2 µM (inactive)
CC1(C)CCC(C)(C)C1C(=O)NC(O)C(=O)O (configuration not stated) | > 100 µM (inactive) | > 100 µM (inactive) | > 100 µM (inactive) | > 100 µM | > 100 µM (inactive) | > 100 µM (inactive) | > 100 µM (inactive) | > 100 µM (inactive) | > 100 µM (inactive) | > 100 µM (inactive) | > 100 µM (inactive) | > 100 µM (inactive) | > 100 µM (inactive) | – | – | – | > 100 µM (inactive) | – | > 100 µM (inactive)
O=C(NCCCCNCCCNC(=O)C(F)(F)F)C(F)(F)F | > 100 µM (inactive) | > 100 µM (inactive) | > 100 µM (inactive) | > 100 µM | > 100 µM (inactive) | – | > 100 µM (inactive) | > 100 µM (inactive) | > 100 µM (inactive) | > 100 µM (inactive) | > 100 µM (inactive) | > 100 µM (inactive) | > 100 µM (inactive) | > 100 µM (inactive) | > 100 µM (inactive) | > 100 µM (inactive) | > 100 µM (inactive) | > 100 µM (inactive) | > 100 µM (inactive)
O=C(OCc1ccccc1)N1CCCc2c(n(S(=O)(=O)c3ccccc3)c3ccccc23)C1 | – | > 100 µM (inactive) | > 100 µM (inactive) | > 100 µM | > 100 µM (inactive) | > 100 µM (inactive) | > 100 µM (inactive) | > 100 µM (inactive) | – | > 100 µM (inactive) | > 100 µM (inactive) | > 100 µM (inactive) | > 100 µM (inactive) | > 100 µM (inactive) | > 100 µM (inactive) | > 100 µM (inactive) | > 100 µM (inactive) | > 100 µM (inactive) | > 100 µM (inactive)
c1ccc2c(C3CCN(CCN4CCOCC4)C3)c[nH]c2c1 (configuration not stated) | > 100 µM (inactive) | > 100 µM (inactive) | > 100 µM (inactive) | > 100 µM | > 100 µM (inactive) | > 100 µM (inactive) | > 100 µM (inactive) | > 100 µM (inactive) | > 100 µM (inactive) | – | > 100 µM (inactive) | > 100 µM (inactive) | > 100 µM (inactive) | > 100 µM (inactive) | > 100 µM (inactive) | > 100 µM (inactive) | > 100 µM (inactive) | > 100 µM (inactive) | > 100 µM (inactive)
CC(C)C(C/C=C1\CC(CO)(COC(=O)c2ccccc2)OC1=O)C(C)C (configuration not stated) | 12.1 µM (inactive) | – | 17.2 µM (inactive) | 21.6 µM | 13.7 µM (inactive) | 19.5 µM (inactive) | 14.8 µM (inactive) | 21.3 µM (inactive) | 84.9 µM (inactive) | 19.8 µM (inactive) | 15.8 µM (inactive) | 10.4 µM (inactive) | 19.1 µM (inactive) | 27.6 µM (inactive) | 18.7 µM (inactive) | 18.8 µM (inactive) | > 100 µM (inactive) | 21.2 µM (inactive) | 17.4 µM (inactive)
Cc1cccc2nc3n(c12)C(=O)c1ccccc1-3 | > 100 µM (inactive) | 44.4 µM (inactive) | > 100 µM (inactive) | > 100 µM | > 100 µM (inactive) | – | – | – | – | > 100 µM (inactive) | > 100 µM (inactive) | – | > 100 µM (inactive) | > 100 µM (inactive) | > 100 µM (inactive) | > 100 µM (inactive) | > 100 µM (inactive) | > 100 µM (inactive) | > 100 µM (inactive)
O=C(Cn1c2ccc(Br)cc2c2nc3ccccc3nc21)NNC(=O)NC1CCCCC1 | 26.7 µM (inactive) | 24.9 µM (inactive) | 57.3 µM (inactive) | – | 27.7 µM (inactive) | 41.4 µM (inactive) | 40.3 µM (inactive) | 30.1 µM (inactive) | 32.7 µM (inactive) | – | 37.7 µM (inactive) | > 100 µM (inactive) | 30.1 µM (inactive) | 98.9 µM (inactive) | 30.3 µM (inactive) | 13.8 µM (inactive) | > 100 µM (inactive) | 63.5 µM (inactive) | 2.52 µM (inactive)
CCOC(=O)Cn1c(=O)c2nc(SC)sc2n(-c2ccccc2)c1=S | > 100 µM (inactive) | > 100 µM (inactive) | 27.5 µM (inactive) | 52 µM | 19.9 µM (inactive) | 94 µM (inactive) | 32.5 µM (inactive) | 22.3 µM (inactive) | 64.6 µM (inactive) | 18.4 µM (inactive) | 26.2 µM (inactive) | > 100 µM (inactive) | 13.4 µM (inactive) | > 100 µM (inactive) | – | 15.3 µM (inactive) | < 0.01 µM (active) | 26.6 µM (inactive) | 4.43 µM (inactive)
Cc1c(-c2ccccc2)[nH]n(C2=NCCN2)c1=O | > 100 µM (inactive) | – | > 100 µM (inactive) | > 100 µM | > 100 µM (inactive) | > 100 µM (inactive) | > 100 µM (inactive) | > 100 µM (inactive) | > 100 µM (inactive) | 52.8 µM (inactive) | > 100 µM (inactive) | > 100 µM (inactive) | > 100 µM (inactive) | > 100 µM (inactive) | > 100 µM (inactive) | > 100 µM (inactive) | > 100 µM (inactive) | > 100 µM (inactive) | 85.1 µM (inactive)
